In test [1] the test system is Cells stably expressing Amyloid Precursor Protein (APP). In words: In vitro BACE cell-based assay (HEK cell assay): Aβ40 in conditioned medium by sandwich ELISA. Particulars: Aβ40 in conditioned medium after 24 h incubation. The method, then: In Vitro BACE Cell-Based Assay:
The cell-based assay measures inhibition or reduction of Aβ40 in conditioned medium of test compound treated cells expressing amyloid precursor protein.
Cells stably expressing Amyloid Precursor Protein (APP) were plated at a density of 40K cells/well in 96 well plates (Costar). The cells were cultivated for 24 hours at 37° C. and 5% CO2 in DMEM supplemented with 10% FBS. The test compounds were then added to cells in 10-point dose response concentrations with the starting concentration being either 100 μM or 10 μM. The compounds were diluted from stock solutions in DMSO and the final DMSO concentration of the test compounds on cells was 0.1%. After 24 h of incubation with the test compounds the supernatant conditioned media was collected and the Aβ 40 levels were determined using a sandwich ELISA. The IC50 of the compound was calculated from the percent of control or percent inhibition of Aβ 40 as a function of the concentration of the test compound.
The sandwich ELISA to detect Aβ 40 was performed in 96 well microtiter plates, which were pre-treated with goat anti-rabbit IgG (Pierce). The capture and detecting antibody pair that were used to detect Aβ 40 from cell supernatants were affinity purified pAb40 (Biosource) and biotinylated 6E10 (Signet Labs Inc.), respectively. The optimal concentration for the pAb40 antibody was 3 μg/ml in Superblock/TBS (Pierce) that was supplemented with 0.05% Tween 20 (Sigma). Optimal concentration for the detection antibody 6E10-biotinylated was 0.5 μg/ml in Superblock/TBS (Pierce) that had been supplemented with 2% normal goat serum and 2% normal mouse serum.
Cellular supernatants were incubated with the capture antibody for 3 h at 4° C., followed by 3 wash steps in TBS-tween (0.05%). The detecting antibody incubation was for 2 h at 4° C., again followed by the wash steps as described previously. The final readout of the ELISA is Time-Resolved Fluorescence (counts per minute) using Delfia reagents Streptavidin-Europium and Enhancement solutions (Perkin Elmer) and the Victor 2 multilabel counter (Perkin Elmer).
Of the compounds tested, in-the cell-based assay, data for each of Examples 33-156 is provided in Table 1 and Examples 208-246 are provided in Table 4.

In a further test the target is BACE1 (Homo sapiens, UniProt P56817). The experiment in a line: In vitro enzymatic BACE FRET (fluorescence resonance energy transfer) assay. Format: biochemical. The method, then: In Vitro Enzymatic BACE FRET (Fluorescence Resonance Energy Transfer) Assay (Enzyme Assay Data in Table 1)
The assay buffer used in this screen is 0.05 M acetate, pH 4.2, 10% DMSO final, 100 uM genapol (which is a nonionic detergent, below its Critical Micelle Concentration). […] The assay is effectively started by the addition of FRET substrate (50 nM) and the combination is incubated for one hour. The FRET assay is terminated with by addition of Tris buffer, which raises the pH to neutrality, and the fluorescence is determined. The FRET substrate is a peptide with commercially available fluorophore and quencher, on opposite sides of the BACE cleavage site. Proteolytic cleavage of the FRET substrate releases quenching of fluorescence (excitation […] and emission […]).

Sequence of BACE1 (P56817 46-501, species assumed): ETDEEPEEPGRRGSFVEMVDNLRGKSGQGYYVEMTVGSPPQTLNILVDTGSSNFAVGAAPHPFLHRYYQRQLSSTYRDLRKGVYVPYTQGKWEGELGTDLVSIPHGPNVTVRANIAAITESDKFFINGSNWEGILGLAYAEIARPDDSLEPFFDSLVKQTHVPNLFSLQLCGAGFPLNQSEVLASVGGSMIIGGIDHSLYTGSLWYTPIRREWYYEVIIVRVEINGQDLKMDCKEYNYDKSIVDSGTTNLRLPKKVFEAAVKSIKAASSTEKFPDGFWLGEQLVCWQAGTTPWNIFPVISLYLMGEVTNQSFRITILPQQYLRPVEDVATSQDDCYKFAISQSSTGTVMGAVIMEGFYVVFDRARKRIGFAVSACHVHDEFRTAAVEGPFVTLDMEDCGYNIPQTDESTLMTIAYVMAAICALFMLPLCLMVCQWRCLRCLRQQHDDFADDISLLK

As for `C=CC[C@H](NC(=O)c1cccc(F)c1)[C@H](O)CN[C@H]1CC2(CCC2)Oc2ncc(CC(C)(C)C)cc21` [Example 64, N-((1S)-1-((1R)-2-(((4′S)-6′-(2,2-dimethylpropyl)-3′,4′-dihydrospiro[cyclobutane-1,2′-pyrano[2,3-b]pyridin]-4′-yl)amino)-1-hydroxyethyl)-3-buten-1-yl)-3-fluorobenzamide], the IC50 in test [1] (Homo sapiens, HEK293, 24 h) amounted to 2580 nM; on BACE1, 371 nM.
Turning to `C=CC[C@H](NC(=O)c1cncc(F)c1)[C@H](O)CN[C@H]1CC2(CCC2)Oc2ncc(CC(C)(C)C)cc21` [Example 56, N-((1S)-1-((1R)-2-(((4′S)-6′-(2,2-dimethylpropyl)-3′,4′-dihydrospiro[cyclobutane-1,2′-pyrano[2,3-b]pyridin]-4′-yl)amino)-1-hydroxyethyl)-3-buten-1-yl)-5-fluoro-3-pyridinecarboxamide], the IC50 in test [1] (Homo sapiens, HEK293, 24 h) came to 392 nM; on BACE1, 125 nM.
For `C#CC[C@H](NC(=O)c1cc(F)cc(F)c1)[C@H](O)CN[C@H]1CC2(CCC2)Oc2ncc(CC(C)(C)C)cc21` [Example 36, N-((1S)-1-((1R)-2-(((4′S)-6′-(2,2-dimethylpropyl)-3′,4′-dihydrospiro[cyclobutane-1,2′-pyrano[2,3-b]pyridin]-4′-yl)amino)-1-hydroxyethyl)-3-butyn-1-yl)-3,5-difluorobenzamide], in that order: 4160 nM and 228 nM.
For `C=CC[C@H](NC(=O)c1cnccn1)[C@H](O)CN[C@H]1CC2(CCC2)Oc2ncc(CC(C)(C)C)cc21` [Example 98, N-((1S)-1-((1R)-2-(((4′S)-6′-(2,2-dimethylpropyl)-3′,4′-dihydrospiro[cyclobutane-1,2′-pyrano[2,3-b]pyridin]-4′-yl)amino)-1-hydroxyethyl)-3-buten-1-yl)-2-pyrazinecarboxamide], in that order: 1680 nM and 741 nM.
The matching figures for `C=CC[C@H](NC(=O)COC)[C@H](O)CN[C@H]1CC2(CCC2)Oc2ncc(CC(C)(C)CF)cc21` [Example 80, N-((1S)-1-((1R)-2-(((4′S)-6′-(3-fluoro-2,2-dimethylpropyl)-3′,4′-dihydrospiro[cyclobutane-1,2′-pyrano[2,3-b]pyridin]-4′-yl)amino)-1-hydroxyethyl)-3-buten-1-yl)-2-(methyloxy)acetamide]: 249 nM and 84 nM.
`CC#CC[C@H](NC(C)=O)[C@H](O)CN[C@H]1CC2(CCC2)Oc2ncc(CC(C)(C)C)cc21` [Example 86, N-((1S)-1-((1R)-2-(((4′S)-6′-(2,2-dimethylpropyl)-3′,4′-dihydrospiro[cyclobutane-1,2′-pyrano[2,3-b]pyridin]-4′-yl)amino)-1-hydroxyethyl)-3-pentyn-1-yl)acetamide]: the IC50 worked out at 104 nM in test [1] (Homo sapiens, HEK293, 24 h) and 69 nM on BACE1.
The matching figures for `C=CC[C@H](NC(=O)[C@@H](F)c1ccccc1)[C@H](O)CN[C@H]1CC2(CCC2)Oc2ncc(CC(C)(C)C)cc21` [Example 142, (2S)-N-((1S)-1-((1R)-2-(((4′S)-6′-(2,2-dimethylpropyl)-3′,4′-dihydrospiro[cyclobutane-1,2′-pyrano[2,3-b]pyridin]-4′-yl)amino)-1-hydroxyethyl)-3-buten-1-yl)-2-fluoro-2-phenylethanamide]: 1560 nM and 33 nM.
With `C=CC[C@H](NC(=O)[C@@H](C)OC)[C@H](O)CN[C@H]1CC2(CCC2)Oc2nc(F)c(CC(C)C)cc21` [Example 127, (2R)-N-((1S)-1-((1R)-2-(((4′S)-7′-fluoro-6′-(2-methylpropyl)-3′,4′-dihydrospiro[cyclobutane-1,2′-pyrano[2,3-b]pyridin]-4′-yl)amino)-1-hydroxyethyl)-3-buten-1-yl)-2-(methyloxy)propanamide], the IC50 in test [1] (Homo sapiens, HEK293, 24 h) amounted to 207 nM; at BACE1, 445 nM.
Turning to `C=CC[C@H](NC(=O)c1ccc(F)c(F)c1)[C@H](O)CN[C@H]1CC2(CCC2)Oc2ncc(CC(C)(C)C)cc21` [Example 60, N-((1S)-1-((1R)-2-(((4′S)-6′-(2,2-dimethylpropyl)-3′,4′-dihydrospiro[cyclobutane-1,2′-pyrano[2,3-b]pyridin]-4′-yl)amino)-1-hydroxyethyl)-3-buten-1-yl)-3,4-difluorobenzamide], the IC50 in test [1] (Homo sapiens, HEK293, 24 h) was 361 nM; at BACE1, 87 nM.
For `C=CC[C@H](NC(C)=O)[C@H](O)CN[C@H]1CC2(CCC2)Oc2ncc(CC(C)(F)F)cc21` [Example 120, N-((1S)-1-((1R)-2-(((4′S)-6′-(2,2-difluoropropyl)-3′,4′-dihydrospiro[cyclobutane-1,2′-pyrano[2,3-b]pyridin]-4′-yl)amino)-1-hydroxyethyl)-3-buten-1-yl)acetamide], in that order: 64 nM and 194 nM.
For `C=CC[C@H](NC(=O)c1ccns1)[C@H](O)CN[C@H]1CC2(CCC2)Oc2ncc(CC(C)(C)C)cc21` [Example 130, N-((1S)-1-((1R)-2-(((4′S)-6′-(2,2-dimethylpropyl)-3′,4′-dihydrospiro[cyclobutane-1,2′-pyrano[2,3-b]pyridin]-4′-yl)amino)-1-hydroxyethyl)-3-buten-1-yl)-5-isothiazolecarboxamide], in that order: 190 nM and 94 nM.
With `C=CCC(NC(=O)C1CC1OCC)C(O)CNC1CC2(CCC2)Oc2ncc(CC(C)(C)C)cc21` [Example 154, (1R,2S)-N-((1S)-1-((1R)-2-(((4′S)-6′-(2,2-dimethylpropyl)-3′,4′-dihydrospiro[cyclobutane-1,2′-pyrano[2,3-b]pyridin]-4′-yl)amino)-1-hydroxyethyl)-3-buten-1-yl)-2-(ethyloxy)cyclopropanecarboxamide; (1S,2R)-N-((1S)-1-((1R)-2-(((4′S)-6′-(2,2-dimethylpropyl)-3′,4′-dihydrospiro[cyclobutane-1,2′-pyrano[2,3-b]pyridin]-4′-yl)amino)-1-hydroxyethyl)-3-buten-1-yl)-2-(ethyloxy)cyclopropanecarboxamide], the figures for the IC50 (in test [1]; at BACE1) were 242 nM and 137 nM, respectively.
With `C=CC[C@H](NC(=O)c1cccs1)[C@H](O)CN[C@H]1CC2(CCC2)Oc2ncc(CC(C)(C)C)cc21` [Example 128, N-((1S)-1-((1R)-2-(((4′S)-6′-(2,2-dimethylpropyl)-3′,4′-dihydrospiro[cyclobutane-1,2′-pyrano[2,3-b]pyridin]-4′-yl)amino)-1-hydroxyethyl)-3-buten-1-yl)-2-thiophenecarboxamide], the IC50 in test [1] (Homo sapiens, HEK293, 24 h) is 1320 nM; on BACE1 it was 169 nM.
The matching figures for `C=CCC(NC(=O)C1CN(C(=O)N2CCCCC2)CCO1)C(O)CNC1CC2(CCC2)Oc2ncc(CC(C)(C)C)cc21` (stereo not shown) [Example 152]: 4 nM and 12 nM.
Take `C=CC[C@H](NC(=O)[C@@H](C)OC)[C@H](O)CN[C@H]1CC2(CCC2)Oc2ncc(CC(C)C)cc21` [Example 42, (2R)-N-((1S)-1-((1R)-1-hydroxy-2-(((4′S)-6′-(2-methylpropyl)-3′,4′-dihydrospiro[cyclobutane-1,2′-pyrano[2,3-b]pyridin]-4′-yl)amino)ethyl)-3-buten-1-yl)-2-(methyloxy)propanamide]: the half-inhibitory concentration (IC50) in test [1] (Homo sapiens, HEK293, 24 h) turned out to be 269 nM; on BACE1, 99 nM.
The matching figures for `C=CC[C@H](NC(=O)COC)[C@H](O)CN[C@H]1CC2(CCC2)Oc2nc(F)c(CC(C)C)cc21` [Example 126, N-((1S)-1-((1R)-2-(((4′S)-7′-fluoro-6′-(2-methylpropyl)-3′,4′-dihydrospiro[cyclobutane-1,2′-pyrano[2,3-b]pyridin]-4′-yl)amino)-1-hydroxyethyl)-3-buten-1-yl)-2-(methyloxy)acetamide]: 211 nM and 316 nM.
As to `C=CCC(NC(=O)C1CCC(=O)O1)C(O)CNC1CC2(CCC2)Oc2cnc(C(F)(F)F)cc21` [Example 119, (S)-N-((2R,3S)-1-((S)-2,2-spirocyclobutyl-6-(trifluoromethyl)-3,4-dihydro-2H-pyrano[2,3-c]pyridin-4-ylamino)-2-hydroxyhex-5-en-3-yl)-5-oxo-tetrahydrofuran-2-carboxamide], the IC50 in test [1] (Homo sapiens, HEK293, 24 h) was not below 10000 nM; at BACE1, 9300 nM.

The values above are taken from patent US8633315B2, “Substituted hydroxyethyl amine compounds as beta-secretase modulators and methods of use” (Amgen Inc., priority 2007, dated 2014).
